Reference: patent US10072026B2, “Crystalline form of 3-((1R,3s,5S)-3-((7-((5-methyl-1H-pyrazol-3-yl)amino)-1,6-naphthyridin-5-yl)amino)-8-azabicyclo[3.2.1]octan-8-yl)propanenitrile” (priority 2015, dated 2018)
Like-named read-outs stand apart in the source and are kept apart here.

Assays:
[1] = system: IL-4 induced STAT6 phosphorylation in THP-1 human monocytic cells; experiment: Cellular JAK potency assay, THP-1
[2] = target: JAK1 (Homo sapiens (Human), UniProt P23458); experiment: LanthaScreen JAK biochemical assay (JAK1)
JAK1, sequence (P23458 whole entry): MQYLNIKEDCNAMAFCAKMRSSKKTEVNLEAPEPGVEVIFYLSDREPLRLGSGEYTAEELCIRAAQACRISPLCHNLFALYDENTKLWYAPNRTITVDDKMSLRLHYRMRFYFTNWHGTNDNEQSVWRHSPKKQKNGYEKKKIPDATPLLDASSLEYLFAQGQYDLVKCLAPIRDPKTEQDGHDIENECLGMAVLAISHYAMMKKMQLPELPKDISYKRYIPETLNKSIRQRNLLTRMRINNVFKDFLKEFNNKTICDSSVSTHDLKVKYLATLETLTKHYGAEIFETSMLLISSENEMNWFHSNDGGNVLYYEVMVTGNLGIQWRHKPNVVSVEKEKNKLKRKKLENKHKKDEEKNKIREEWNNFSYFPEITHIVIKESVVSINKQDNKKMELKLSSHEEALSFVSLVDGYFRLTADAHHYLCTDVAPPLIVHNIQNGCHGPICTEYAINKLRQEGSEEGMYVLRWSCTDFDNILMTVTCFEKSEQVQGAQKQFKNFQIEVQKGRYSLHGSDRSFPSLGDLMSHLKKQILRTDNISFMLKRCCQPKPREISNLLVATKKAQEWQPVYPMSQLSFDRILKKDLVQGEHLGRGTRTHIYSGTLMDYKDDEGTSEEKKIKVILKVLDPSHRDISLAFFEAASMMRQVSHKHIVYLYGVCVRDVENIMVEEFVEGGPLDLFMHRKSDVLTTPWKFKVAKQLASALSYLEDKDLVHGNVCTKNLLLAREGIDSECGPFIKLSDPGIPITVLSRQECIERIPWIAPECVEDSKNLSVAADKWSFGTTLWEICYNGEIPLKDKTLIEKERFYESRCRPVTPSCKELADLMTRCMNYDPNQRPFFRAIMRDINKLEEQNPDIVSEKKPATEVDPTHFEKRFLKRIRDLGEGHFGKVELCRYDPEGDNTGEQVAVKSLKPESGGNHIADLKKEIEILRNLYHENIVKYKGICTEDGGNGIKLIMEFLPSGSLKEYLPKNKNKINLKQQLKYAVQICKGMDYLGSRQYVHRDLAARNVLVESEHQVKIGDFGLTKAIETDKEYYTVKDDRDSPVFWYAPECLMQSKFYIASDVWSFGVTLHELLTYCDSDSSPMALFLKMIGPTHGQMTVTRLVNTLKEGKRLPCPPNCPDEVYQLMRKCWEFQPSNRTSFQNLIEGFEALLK

[3] = target: Tyk2 (Homo sapiens (Human), UniProt P29597); experiment: LanthaScreen JAK biochemical assay (Tyk2)
Tyk2, sequence (P29597 whole entry): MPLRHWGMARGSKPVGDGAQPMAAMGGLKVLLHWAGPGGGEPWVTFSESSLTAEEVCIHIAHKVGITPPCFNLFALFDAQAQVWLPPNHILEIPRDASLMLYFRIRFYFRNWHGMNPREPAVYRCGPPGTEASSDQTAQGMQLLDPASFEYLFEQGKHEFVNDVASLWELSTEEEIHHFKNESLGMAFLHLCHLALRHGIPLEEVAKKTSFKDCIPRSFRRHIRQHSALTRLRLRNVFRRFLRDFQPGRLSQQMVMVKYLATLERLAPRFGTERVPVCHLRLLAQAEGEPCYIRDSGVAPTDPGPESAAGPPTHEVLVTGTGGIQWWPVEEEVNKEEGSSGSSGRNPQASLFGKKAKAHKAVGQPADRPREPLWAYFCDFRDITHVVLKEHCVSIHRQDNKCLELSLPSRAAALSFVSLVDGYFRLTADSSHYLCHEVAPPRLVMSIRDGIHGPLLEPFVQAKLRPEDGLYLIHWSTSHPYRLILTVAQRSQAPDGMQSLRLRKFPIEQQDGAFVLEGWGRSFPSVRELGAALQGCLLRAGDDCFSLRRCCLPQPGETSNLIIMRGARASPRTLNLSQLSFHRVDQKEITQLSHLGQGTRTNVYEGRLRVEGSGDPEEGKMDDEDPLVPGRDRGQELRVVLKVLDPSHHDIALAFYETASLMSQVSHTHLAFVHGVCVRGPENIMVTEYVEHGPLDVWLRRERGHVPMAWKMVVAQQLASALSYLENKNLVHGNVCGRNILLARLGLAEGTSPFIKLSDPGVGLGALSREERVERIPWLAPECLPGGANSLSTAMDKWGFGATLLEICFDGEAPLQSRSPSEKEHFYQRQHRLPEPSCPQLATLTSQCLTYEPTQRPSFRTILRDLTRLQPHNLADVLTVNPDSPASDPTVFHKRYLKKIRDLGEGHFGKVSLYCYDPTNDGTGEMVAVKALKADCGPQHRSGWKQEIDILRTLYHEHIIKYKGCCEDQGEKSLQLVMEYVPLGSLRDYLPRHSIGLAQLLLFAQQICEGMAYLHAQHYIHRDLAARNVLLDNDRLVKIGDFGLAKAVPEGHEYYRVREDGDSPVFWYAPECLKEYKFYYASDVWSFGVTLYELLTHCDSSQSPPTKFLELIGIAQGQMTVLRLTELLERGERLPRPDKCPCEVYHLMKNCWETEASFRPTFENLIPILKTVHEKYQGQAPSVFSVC

[4] = system: IL-13 induced STAT6 phosphorylation in BEAS-2B human lung epithelial cells; experiment: AlphaScreen cellular JAK potency assay, BEAS-2B
[5] = target: JAK2 (Homo sapiens (Human), UniProt O60674); experiment: LanthaScreen JAK biochemical assay (JAK2)
JAK2, sequence (O60674 whole entry): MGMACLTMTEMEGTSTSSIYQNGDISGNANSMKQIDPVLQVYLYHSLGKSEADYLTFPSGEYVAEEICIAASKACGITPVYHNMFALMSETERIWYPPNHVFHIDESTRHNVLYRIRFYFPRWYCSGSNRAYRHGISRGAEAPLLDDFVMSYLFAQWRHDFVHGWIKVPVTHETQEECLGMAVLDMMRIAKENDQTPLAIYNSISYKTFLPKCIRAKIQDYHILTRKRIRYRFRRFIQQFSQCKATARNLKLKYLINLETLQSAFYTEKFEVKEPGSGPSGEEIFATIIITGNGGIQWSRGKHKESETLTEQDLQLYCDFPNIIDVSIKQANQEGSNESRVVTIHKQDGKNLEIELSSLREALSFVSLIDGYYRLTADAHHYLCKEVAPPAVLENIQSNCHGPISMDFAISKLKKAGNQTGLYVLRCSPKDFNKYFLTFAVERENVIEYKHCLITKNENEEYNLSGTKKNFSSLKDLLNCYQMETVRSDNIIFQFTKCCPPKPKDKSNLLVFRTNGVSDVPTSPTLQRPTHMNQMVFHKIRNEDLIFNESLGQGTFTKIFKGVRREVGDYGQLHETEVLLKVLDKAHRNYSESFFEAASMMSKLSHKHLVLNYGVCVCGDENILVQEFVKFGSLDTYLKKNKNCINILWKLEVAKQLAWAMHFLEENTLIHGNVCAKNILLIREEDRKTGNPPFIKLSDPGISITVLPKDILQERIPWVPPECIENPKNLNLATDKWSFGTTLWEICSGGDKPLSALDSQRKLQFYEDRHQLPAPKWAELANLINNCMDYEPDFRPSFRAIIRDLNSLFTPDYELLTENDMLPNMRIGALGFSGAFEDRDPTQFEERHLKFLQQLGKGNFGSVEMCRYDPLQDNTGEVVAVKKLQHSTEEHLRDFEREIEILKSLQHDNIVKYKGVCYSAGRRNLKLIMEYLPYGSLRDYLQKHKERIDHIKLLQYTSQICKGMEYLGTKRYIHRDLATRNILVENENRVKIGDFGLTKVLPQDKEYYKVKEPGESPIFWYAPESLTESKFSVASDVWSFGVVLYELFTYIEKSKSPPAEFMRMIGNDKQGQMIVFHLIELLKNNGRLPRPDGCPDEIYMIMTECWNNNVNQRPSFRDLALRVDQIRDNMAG

[6] = Homo sapiens, THP-1, read-out: THP-1 IL4 pIC50 (converted)
[7] = Homo sapiens, BEAS-2B, read-out: BEAS2B pIC50 (converted)
[8] = IL-4 induced STAT6 phosphorylation, THP-1 cells
[9] = IL-13 induced STAT6 phosphorylation, BEAS-2B cells
[10] = read-out: JAK 1 (pKi) (converted)
[11] = read-out: Tyk 2 (pKi) (converted)
[12] = read-out: JAK 2 (pKi) (converted)
[13] = BEAS-2B cells, IL-13 induced STAT6 phosphorylation
[14] = THP-1 cells, IL-4 induced STAT6 phosphorylation

SMILES	IC50 [1, 6] [nM]	IC50 [4, 7] [nM]	JAK 1 (pKi) [2]	Tyk 2 (pKi) [3]	BEAS2B pIC50 [4, 9]	JAK 2 (pKi) [5]	Ki [2, 10] [nM]	Ki [3, 11] [nM]	also measured
Cc1cc(Nc2cc3ncccc3c(N[C@@H]3C[C@H]4CC[C@@H](C3)N4CC(F)(F)F)n2)n[nH]1 [Example 1-14]	< 31.6	< 31.6	–	–	–	–	–	–	Ki [2]: 0.1 to 1 nM; Ki [3]: 0.1 to 1 nM; Ki [5]: 0.1 to 1 nM
CCC(CC#N)N1[C@@H]2CC[C@H]1C[C@H](Nc1nc(Nc3cc(C)[nH]n3)cc3ncccc13)C2 (some centres unmarked) [Example 1-22]	–	–	B (B represents a pKi value between 9 and 10 (Ki between 1 nM and 0.1 nM))	B (B represents a pKi value between 9 and 10 (Ki between 1 nM and 0.1 nM))	A (A represents a pEC50 value≥7.5 (EC50≤32 nM))	B (B represents a pKi value between 9 and 10 (Ki between 1 nM and 0.1 nM))	–	–	THP-1 IL4 pIC50 [1, 8]: B (B represents a pEC50 value between 6.7 and 7.5 (EC50 between 200 nM and 32 nM))
Cc1cc(Nc2cc3ncccc3c(N[C@@H]3C[C@H]4CC[C@@H](C3)N4CC3(C#N)CC3)n2)n[nH]1 [Example 1-24]	31.6 to 200	< 31.6	–	–	–	–	0.1 to 1	0.1 to 1	–
Cc1cc(Nc2cc3ncccc3c(N[C@@H]3C[C@H]4CC[C@@H](C3)N4C3(CC#N)COC3)n2)n[nH]1 [Example 1-25]	< 31.6	< 31.6	–	–	–	–	0.1 to 1	–	Ki [3]: 0.1 to 1 nM
Cc1cc(Nc2cc3ncccc3c(N[C@@H]3C[C@H]4CCC[C@@H](C3)N4Cc3ccnc(C#N)c3)n2)n[nH]1 [Example 1-55]	–	–	–	C (C represents a pKi value between 7 and 9 (Ki between 100 nM and 1 nM))	B (B represents a pEC50 value between 6.7 and 7.5 (EC50 between 200 nM and 32 nM))	–	–	–	–
Cc1cc(Nc2cc3ncccc3c(N[C@@H]3C[C@H]4CCC[C@@H](C3)N4Cc3ccncc3C#N)n2)n[nH]1 [Example 1-56]	–	–	B (B represents a pKi value between 9 and 10 (Ki between 1 nM and 0.1 nM))	B (B represents a pKi value between 9 and 10 (Ki between 1 nM and 0.1 nM))	A (A represents a pEC50 value≥7.5 (EC50≤32 nM))	B (B represents a pKi value between 9 and 10 (Ki between 1 nM and 0.1 nM))	–	–	THP-1 IL4 pIC50 [1, 8]: A (A represents a pEC50 value≥7.5 (EC50≤32 nM))
Cc1cc(Nc2cc3ncccc3c(N[C@@H]3C[C@H]4CCC[C@@H](C3)N4C(=O)CCCC#N)n2)n[nH]1 [Example 2-27]	–	–	B (B represents a pKi value between 9 and 10 (Ki between 1 nM and 0.1 nM))	B (B represents a pKi value between 9 and 10 (Ki between 1 nM and 0.1 nM))	B (B represents a pEC50 value between 6.7 and 7.5 (EC50 between 200 nM and 32 nM))	B (B represents a pKi value between 9 and 10 (Ki between 1 nM and 0.1 nM))	–	–	–
Cc1cc(Nc2cc3ncccc3c(N[C@@H]3C[C@H]4CCC[C@@H](C3)N4C(=O)c3ccc(C#N)nc3)n2)n[nH]1 [Example 2-28]	–	–	B (B represents a pKi value between 9 and 10 (Ki between 1 nM and 0.1 nM))	B (B represents a pKi value between 9 and 10 (Ki between 1 nM and 0.1 nM))	C (C represents a pEC50 value<6.7 (EC50>200 nM))	–	–	–	–
Cc1cc(Nc2cc3ncccc3c(N[C@@H]3C[C@H]4CCC[C@@H](C3)N4C(=O)C(C)CC#N)n2)n[nH]1 (some centres unmarked) [Example 2-29]	–	–	B (B represents a pKi value between 9 and 10 (Ki between 1 nM and 0.1 nM))	B (B represents a pKi value between 9 and 10 (Ki between 1 nM and 0.1 nM))	B (B represents a pEC50 value between 6.7 and 7.5 (EC50 between 200 nM and 32 nM))	B (B represents a pKi value between 9 and 10 (Ki between 1 nM and 0.1 nM))	–	–	–
COc1ccc2c(N[C@@H]3C[C@H]4CC[C@@H](C3)N4CC(F)(F)F)nc(Nc3cc(C)[nH]n3)cc2n1 [Example 5-1]	< 31.6	< 31.6	–	–	–	–	0.1 to 1	0.1 to 1	Ki [5, 12]: 0.1 to 1 nM
COc1ccc2c(N[C@@H]3C[C@H]4CC[C@@H](C3)N4CCC#N)nc(Nc3cc(C)[nH]n3)cc2n1 [Example 5-8]	–	–	B (B represents a pKi value between 9 and 10 (Ki between 1 nM and 0.1 nM))	B (B represents a pKi value between 9 and 10 (Ki between 1 nM and 0.1 nM))	A (A represents a pEC50 value≥7.5 (EC50≤32 nM))	B (B represents a pKi value between 9 and 10 (Ki between 1 nM and 0.1 nM))	–	–	THP-1 IL4 pIC50 [1, 8]: A (A represents a pEC50 value≥7.5 (EC50≤32 nM))
COc1ccc2c(N[C@@H]3C[C@H]4CC[C@@H](C3)N4S(C)(=O)=O)nc(Nc3cc(C)[nH]n3)cc2n1 [Example 5-9]	< 31.6	< 31.6	–	–	–	–	0.1 to 1	0.1 to 1	Ki [5, 12]: 0.1 to 1 nM
Cc1cc(Nc2cc3nc(CN4CCOCC4)ccc3c(N[C@@H]3C[C@H]4CC[C@@H](C3)N4S(=O)(=O)c3cncc(F)c3)n2)n[nH]1 [Example 5-20]	< 31.6	31.6 to 200	–	–	–	–	0.1 to 1	0.1 to 1	Ki [5, 12]: 0.1 to 1 nM
Cc1cnc2cc(Nc3cc(C)[nH]n3)nc(N[C@@H]3C[C@H]4CC[C@@H](C3)N4S(=O)(=O)N3CC(C#N)C3)c2c1 [Example 6-4]	< 31.6	< 31.6	–	–	–	–	0.1 to 1	0.1 to 1	–
COc1cnc2cc(Nc3cc(C)[nH]n3)nc(N[C@@H]3C[C@H]4CC[C@@H](C3)N4S(C)(=O)=O)c2c1 [Example 6-18]	< 31.6	< 31.6	–	–	–	–	–	0.1 to 1	–
COc1cnc2cc(Nc3cc(C)[nH]n3)nc(N[C@@H]3C[C@H]4CC[C@@H](C3)N4S(=O)(=O)N3CC(C#N)C3)c2c1 [Example 6-20]	–	31.6 to 200	–	–	–	–	0.1 to 1	0.1 to 1	Ki [5]: 0.1 to 1 nM
COc1cnc2cc(Nc3cc(C)[nH]n3)nc(N[C@@H]3C[C@H]4CC[C@@H](C3)N4S(=O)(=O)CCCC#N)c2c1 [Example 6-21]	–	–	B (B represents a pKi value between 9 and 10 (Ki between 1 nM and 0.1 nM))	B (B represents a pKi value between 9 and 10 (Ki between 1 nM and 0.1 nM))	–	B (B represents a pKi value between 9 and 10 (Ki between 1 nM and 0.1 nM))	–	–	BEAS2B pIC50 [4, 13]: B (B represents a pEC50 value between 6.7 and 7.5 (EC50 between 200 nM and 32 nM))
COc1cnc2cc(Nc3cc(C)[nH]n3)nc(N[C@@H]3C[C@H]4CC[C@@H](C3)N4S(=O)(=O)CC3(C#N)CC3)c2c1 [Example 6-23]	–	31.6 to 200	–	–	–	–	0.1 to 1	0.1 to 1	–
COc1cnc2cc(Nc3cc(C)[nH]n3)nc(N[C@@H]3C[C@H]4CCC[C@@H](C3)N4S(C)(=O)=O)c2c1 [Example 6-29]	–	–	B (B represents a pKi value between 9 and 10 (Ki between 1 nM and 0.1 nM))	B (B represents a pKi value between 9 and 10 (Ki between 1 nM and 0.1 nM))	–	B (B represents a pKi value between 9 and 10 (Ki between 1 nM and 0.1 nM))	–	–	THP-1 IL4 pIC50 [1, 14]: A (A represents a pEC50 value≥7.5 (EC50≤32 nM)); BEAS2B pIC50 [4, 13]: A (A represents a pEC50 value≥7.5 (EC50≤32 nM))
COc1cnc2cc(Nc3cc(C)[nH]n3)nc(N[C@@H]3C[C@H]4CCC[C@@H](C3)N4CCC#N)c2c1 [Example 6-31]	–	–	B (B represents a pKi value between 9 and 10 (Ki between 1 nM and 0.1 nM))	B (B represents a pKi value between 9 and 10 (Ki between 1 nM and 0.1 nM))	–	B (B represents a pKi value between 9 and 10 (Ki between 1 nM and 0.1 nM))	–	–	THP-1 IL4 pIC50 [1, 14]: A (A represents a pEC50 value≥7.5 (EC50≤32 nM)); BEAS2B pIC50 [4, 13]: A (A represents a pEC50 value≥7.5 (EC50≤32 nM))
Cc1cc(Nc2cc3ncc(S(C)(=O)=O)cc3c(N[C@@H]3C[C@H]4CC[C@@H](C3)N4CCC(F)(F)F)n2)n[nH]1 [Example 6-56]	–	–	B (B represents a pKi value between 9 and 10 (Ki between 1 nM and 0.1 nM))	B (B represents a pKi value between 9 and 10 (Ki between 1 nM and 0.1 nM))	–	A (A represents a pKi value≥10 (Ki≤0.1 nM))	–	–	THP-1 IL4 pIC50 [1, 14]: B (B represents a pEC50 value between 6.7 and 7.5 (EC50 between 200 nM and 32 nM)); BEAS2B pIC50 [4, 13]: B (B represents a pEC50 value between 6.7 and 7.5 (EC50 between 200 nM and 32 nM))
Cc1cc(Nc2cc3ncccc3c(N[C@@H]3C[C@H]4CCC[C@@H](C3)N4S(=O)(=O)c3cncc(F)c3)n2)n[nH]1 [Example 14, N^5-((1R,3s,5S)-9-((5-fluoropyridin-3-yl)sulfonyl)-9-azabicyclo[3.3.1]nonan-3-yl)-N^7-(5-methyl-1H-pyrazol-3-yl)-1,6-naphthyridine-5,7-diamine]	< 31.6	< 31.6	–	–	–	–	–	0.1 to 1	–
